In US20170305981A1, “SYNTHETIC PEPTIDES” (The University of Chicago, priority 2014, published 2017):
Values joined by “and” are separate entries in the source; they are usually repeats but may differ in a detail not shown here. Equal entries are not always repeated. “Also recorded” adds a separate entry of the source.

Experiments:
lipoprotein lipase (LpL) = assay: Lipoprotein lipase (LpL) in vitro activity assay with fluorogenic TG substrate EnzChek; type: biochemical; details: for LpL stimulating activity of domain substitution peptides relative to AV199-232: knockout substitutions in AV199-232 domains
Procedure: FIG. 3A-C. Lipoprotein lipase (LpL) activity assay using a fluorogenic TG analog, EnzChek (Invitrogen). The enzyme reaction mix was composed of increasing concentrations of LpL in 100 μl Tris buffered saline (TBS), 1% BSA, pH 7.8, 0.015% Zwittergent 3-14 and 1 μM EnzChek substrate. Reaction was monitored by fluorescence (λex=482 nm, λem=515 nm) and the relative fluorescence units (RFU) against time plotted (A). BODIPY labeled fatty acid (BODIPY-FA) was used to determine product concentration generated with the lipase (B). Structure of the EnzChek substrate (E33955) which was purchased from Invitrogen Inc. (C).
To search for lipase stimulators, a lipase assay was employed using a commercially available fluorogenic-TG substrate (EnzChek) supplied by Molecular Probes (FIG. 3). The protocol was adapted from Basu et al., (Basu et al. (2011) J.Lipid Res. 52, 826-832; herein incorporated by reference in its entirety) with minor modifications in pH and detergent. For in vitro assays, LpL (SIGMA) was diluted to 0.12 μg/ml in 20 mM Tris-HCl, 150 mM NaCl, 1% BSA, 0.015% Zwittergent 3-14, pH 7.8, 1 μM EnzChek substrate, prepared in 96-well black microtiter plates. For some assays the plates were incubates at 37° C. for 10min. Detection was performed in a Synergy H1 Multi-Mode Reader using excitation/emission wavelengths of 482 nm and 515 nm, respectively. […] Moreover, the product produced could be quantified using BODIPY-C12 fatty acids to determine the molar rates of enzyme reaction. Since the assay uses a non-toxic substrate and a low amount of neutral detergent it is possible to use this assay with live cells (FIG. 4). The lipase activities assayed were sensitive to both the removal of lipase (HL) from the surface of hepatocytes (by a heparin pre-wash) and to apolipoproteins present in isolated lipoproteins, VLDL, LDL and HDL preparations.

LpL [1] = assay: LpL enzyme kinetics (Vmax, Km) by Michaelis-Menten fitting; type: biochemical
Procedure: FIG. 9. […] Lipase reaction was performed with different substrate concentrations (0-25 μM) (A, C, D) to determine the kinetic parameters of LpL enzymatic activity, +/− VLDL (10 μg/ml) and +/− AV199-232 (2.5 μM). (B) The addition of VLDL reduced the enzymes affinity for substrate by 5.3-fold which is consistent with inhibition by apoC-III. […] Kinetic parameters were determined using GraphPad Prism software curve fitting to the Michaelis-Menten enzyme kinetic equation.
The influence of AV199-232 on the kinetic parameters of LpL activity (e.g., Vmax and Km) was investigated (FIG. 9A-B). […] This was due to the apoC-III content of VLDL. […] Also AV199-232 was functional in the presence of apoC-III in VLDL. The effect of different lipoproteins on LpL kinetics was compared (FIG. 9D).

Leukocyte-LpL = target: T1, Leukocyte-LpL (Homo sapiens, UniProt P06858); assay: LpL activity in live leukocytes isolated from fresh human blood; type: cell-based
T1 construct: endogenous in cells; host or cells: leukocytes isolated from fresh human blood
T1 sequence (P06858 28-475): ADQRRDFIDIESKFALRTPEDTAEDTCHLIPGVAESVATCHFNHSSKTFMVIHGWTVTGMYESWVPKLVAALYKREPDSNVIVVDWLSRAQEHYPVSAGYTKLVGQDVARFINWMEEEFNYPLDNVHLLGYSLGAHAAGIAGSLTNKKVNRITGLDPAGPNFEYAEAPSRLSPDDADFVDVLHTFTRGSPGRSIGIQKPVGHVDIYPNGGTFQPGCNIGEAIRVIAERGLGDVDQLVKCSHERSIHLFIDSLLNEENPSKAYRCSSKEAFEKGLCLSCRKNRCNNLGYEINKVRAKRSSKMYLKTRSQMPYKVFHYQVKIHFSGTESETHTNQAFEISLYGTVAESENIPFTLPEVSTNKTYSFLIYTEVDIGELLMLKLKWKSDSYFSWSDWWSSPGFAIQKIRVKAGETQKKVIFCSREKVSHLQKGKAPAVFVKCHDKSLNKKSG
Procedure: (§1) The removal of cell surface LpL with heparin reduced activity.
(§2) Plasma contains lipoproteins with apoC-III and ANGPT4, known inhibitors of LpL activity. However, LpL activity in live leukocytes was stimulated by AV199-232 (FIG. 23C). […] AV199-232 was incubated with whole plasma from normal and diabetic/dyslipidemic plasma and then the TG-rich lipoproteins (Lp) were isolated by PEG-8000 precipitation and added to LpL assays (30 μg/ml).

[2] = Heparin binding (circular dichroism on addition of heparin)
Procedure: FIG. 10. AV199-232 is an a-helical peptide that binds heparin. Peptide folding and conformation was analyzed experimentally by circular dichroism spectroscopy (A) and calculated to be ˜42% α-helical which increased to ˜76% on binding heparin.
Given that there appeared to be a periodicity in the sequence of AV199-232 consisting of alternating polar and non-polar residues, the possibility that the peptide was folded into a amphipathic α-helix was investigated (FIG. 10). […] In silico analysis also predicted a high α-helical content. […] The amphipathic nature of the peptide was evident with polar residues and nonpolar residues (domain-L) organized to opposite sides of the helix. Domain-L is responsible for binding to VLDL. Domain-1, domain-2 and domain-H were also identified on the polar side.

LpL in THP-1 macrophages = target: T2, LpL in THP-1 macrophages (Homo sapiens, UniProt P06858); assay: Lipase activity in cultures of live THP-1 macrophages; type: cell-based; details: live THP-1 macrophages known to express LpL
T2 construct: endogenous in cells; host or cells: THP-1 macrophages
T2 sequence (P06858 28-475): T1 sequence (P06858 28-475)
Procedure: FIG. 8. Determining the minimum peptide sequence (A) harboring full lipase stimulating activity (B, D). […] Assays were performed by adding 10 μM of peptide to in vitro LpL assays (B) or to hepatocyte (HepG2) cell cultures (D). In 24 well tissue culture plates, cells were incubated for 1 hr at 37° C. in 200 μL TBS, 1.5% BSA, 0.2% zwittergent 3-14, 1μM EnzChek substrate. AV199-232 was also active in cultures of live THP-1 macrophages known to express LpL (C).

LpL [3] = assay: LpL activity in the presence of human plasma / plasma TG-rich lipoproteins; type: biochemical; details: normal and dyslipidemic plasma
Procedure: as §1, §2

VLDL = VLDL binding, complexes isolated by gel filtration on Sepharose CL-4B, then LpL assay
Procedure: VLDL (100 μg) was incubated with AV199-232 (50 μg) and complexes were isolated from free peptide by gel filtration on a Sepharose CL-4B column (FIG. 15A).

[4] = peptides 80 μg/ml preincubated with VLDL 20 μg/ml
[5] = peptide added to LpL without VLDL, 10 μM

## DomLKO: peptide with domain L substitutions L10Q/L21Q/L29Q (ARLSRCVQVQSRKLTLKAKAQHARIQQNQDQLRE)
Lipoprotein lipase (LpL)
  LpL stimulating activity of domain substitution peptides relative to AV199-232: moderate reduction in activity

## Dom1(E34K): AV199-232 with E34K substitution in domain 1 (ARLSRCVQVLSRKLTLKAKALHARIQQNLDQLRK)
Lipoprotein lipase (LpL)
  LpL stimulating activity of domain substitution peptides relative to AV199-232: did not influence AV199-232 activity

## Dom1KO: AV199-232 with domain 1 substitutions R12Q/D30S (ARLSRCVQVLSQKLTLKAKALHARIQQNLSQLRE)
Lipoprotein lipase (LpL)
  LpL stimulating activity of domain substitution peptides relative to AV199-232: significant reduction

## SEQ ID NO: 23: AV-H/K with L10F and L29F substitutions (ARLSRCVQVFSRKLTLKAKALKARIQQNFDQLRE; Mutated wild-type peptide)
Lipoprotein lipase (LpL); [4]
  improvement in lipase stimulating activity relative to AV-H/K: about 2 fold

## Dom2KO: AV199-232 with domain 2 substitutions K13Q/K17Q (ARLSRCVQVLSRQLTLQAKALHARIQQNLDQLRE)
Lipoprotein lipase (LpL)
  LpL stimulating activity of domain substitution peptides relative to AV199-232: significant reduction

## SEQ ID NO: 22: AV-H/K with L10Q, L21Q and L29Q substitutions (ARLSRCVQVQSRKLTQKAKALKARIQQNQDQLRE; Mutated wild-type peptide)
Lipoprotein lipase (LpL); [4]
  lipase stimulating activity relative to AV-H/K: reduced lipase stimulating activity

## AV199-232: 34-residue peptide, residues 199-232 of apoA-V; AV199-237 shortened by 5 residues (ARLSRCVQVLSRKLTLKAKALHARIQQNLDQLRE; listed as Homo sapiens)
LpL [1]; AV199-232 2.5 μM + VLDL 10 μg/ml
  increase of LpL's apparent affinity for substrate (Km improvement): ~8 fold and 7.8 fold
LpL [1]; AV199-232 2.5 μM without VLDL
  changes in the Vmax and Km of LpL: only marginal changes
Leukocyte-LpL
  stimulation of LpL activity in live leukocytes: responds; also recorded: stimulated; also recorded: responsive
[2]
  heparin binding: heparin binding activity; also recorded: binds heparin
LpL in THP-1 macrophages
  lipase stimulating activity in THP-1 macrophages: active
LpL [3]
  stimulation of LpL activity in the presence of plasma: stimulates LpL activity
VLDL; VLDL 100 μg incubated with AV199-232 50 μg
  VLDL binding: binds VLDL
VLDL; void fraction (Vo) of gel filtration added to LpL
  LpL stimulation by the isolated VLDL:AV199-232 complex: effective at stimulating LpL activity; also recorded: stimulates LpL activity
Lipoprotein lipase (LpL); 10 μM, in vitro LpL assays and HepG2 cell cultures
  lipase stimulating activity of the shortened peptide relative to AV199-237: harbored full activity and was actually somewhat more potent; also recorded: enhancement of activity

## AV-H/K: AV199-232 peptide with H in domain-H replaced with a K (ARLSRCVQVLSRKLTLKAKALKARIQQNLDQLRE; Mutated wild-type peptide)
LpL [3]
  stimulation of LpL activity in the presence of plasma: stimulates LpL

## AV199-237: synthetic peptide spanning residues 199-237 of mature human apoA-V (ARLSRCVQVLSRKLTLKAKALHARIQQNLDQLREELSRA; listed as Homo sapiens)
Lipoprotein lipase (LpL); in the presence of VLDL
  influence on LpL activity: exceeded that seen with an apoC-II peptide (C-II50-79); also recorded: stimulated LpL activity in the presence of VLDL
Lipoprotein lipase (LpL); [5]
  influence on LpL activity: no change in activity; also recorded: did not increase enzyme activity
Lipoprotein lipase (LpL); peptide incubated with VLDL before adding to LpL, 10 μM
  stimulation of LpL activity: ~4 fold

## AV250-288: peptide spanning residues 250-288 of apoA-V (DPQMLSEEVRQRLQAFRQDTYLQIAAFTRAIDQETEEVQ)
Lipoprotein lipase (LpL); in the presence of VLDL
  influence on LpL activity: Little or no stimulating activity; also recorded: did not
Lipoprotein lipase (LpL); [5]
  influence on LpL activity: Little or no stimulating activity
